Tests used:
Assay in all cases: radiometric filter-binding kinase assay, Kinase HotSpot
Details in all cases: compound 0.5 µM; ATP 10 µM
PRKACA (human) = PRKACA (human) (UniProt P17612)
MST4 (human) = MST4 (human) (UniProt Q9P289)
CAMK2B (human) = CAMK2B (human) (UniProt Q13554)
ERBB4 (human) = ERBB4 (human) (UniProt Q15303)
CHUK (human) = CHUK (human) (UniProt O15111)
ACVRL1 (human) = ACVRL1 (human) (UniProt P37023)
VRK1 (human) = VRK1 (human) (UniProt Q99986)
MAP4K5 (human) = MAP4K5 (human) (UniProt Q9Y4K4)
EPHA1 (human) = EPHA1 (human) (UniProt P21709)
CDK1 CCNB1 (human) = CDK1 CCNB1 (human) (UniProt P06493+P14635)
ULK1 (human) = ULK1 (human) (UniProt O75385)
MARK4 (human) = MARK4 (human) (UniProt Q96L34)
PIM3 (human) = PIM3 (human) (UniProt Q86V86)
PDGFRA (human) = PDGFRA (human) (UniProt P16234)
CHEK2 (human) = CHEK2 (human) (UniProt O96017)
LIMK1 (human) = LIMK1 (human) (UniProt P53667)
CHEK1 (human) = CHEK1 (human) (UniProt O14757)
ROCK2 (human) = ROCK2 (human) (UniProt O75116)
CDK9 CCNK (human) = CDK9 CCNK (human) (UniProt O75909+P50750)
CDK4 CCND3 (human) = CDK4 CCND3 (human) (UniProt P30281+P11802)
PRKG2 (human) = PRKG2 (human) (UniProt Q13237)
HIPK2 (human) = HIPK2 (human) (UniProt Q9H2X6)
GSK3A (human) = GSK3A (human) (UniProt P49840)
PRKD2 (human) = PRKD2 (human) (UniProt Q9BZL6)
CDK2 CCNA2 (human) = CDK2 CCNA2 (human) (UniProt P24941+P20248)
PHKG2 (human) = PHKG2 (human) (UniProt P15735)
CSNK1E (human) = CSNK1E (human) (UniProt P49674)
MAP3K7 TAB1 (human) = MAP3K7 TAB1 (human) (UniProt O43318+Q15750)
NEK9 (human) = NEK9 (human) (UniProt Q8TD19)
TGFBR2 (human) = TGFBR2 (human) (UniProt P37173)
WNK3 (human) = WNK3 (human) (UniProt Q9BYP7)
RPS6KA5 KD2 (human) = RPS6KA5 KD2 (human) (UniProt O75582)
FGFR3 (human) = FGFR3 (human) (UniProt P22607)
FLT3 (human) = FLT3 (human) (UniProt P36888)
NEK4 (human) = NEK4 (human) (UniProt P51957)
ABL2 (human) = ABL2 (human) (UniProt P42684)
MATK (human) = MATK (human) (UniProt P42679)
RPS6KA4 KD2 (human) = RPS6KA4 KD2 (human) (UniProt O75676)
AXL (human) = AXL (human) (UniProt P30530)
TBK1 (human) = TBK1 (human) (UniProt Q9UHD2)
KDR (human) = KDR (human) (UniProt P35968)

Sequence of PRKD2 (human) (Q9BZL6 whole entry, looked up): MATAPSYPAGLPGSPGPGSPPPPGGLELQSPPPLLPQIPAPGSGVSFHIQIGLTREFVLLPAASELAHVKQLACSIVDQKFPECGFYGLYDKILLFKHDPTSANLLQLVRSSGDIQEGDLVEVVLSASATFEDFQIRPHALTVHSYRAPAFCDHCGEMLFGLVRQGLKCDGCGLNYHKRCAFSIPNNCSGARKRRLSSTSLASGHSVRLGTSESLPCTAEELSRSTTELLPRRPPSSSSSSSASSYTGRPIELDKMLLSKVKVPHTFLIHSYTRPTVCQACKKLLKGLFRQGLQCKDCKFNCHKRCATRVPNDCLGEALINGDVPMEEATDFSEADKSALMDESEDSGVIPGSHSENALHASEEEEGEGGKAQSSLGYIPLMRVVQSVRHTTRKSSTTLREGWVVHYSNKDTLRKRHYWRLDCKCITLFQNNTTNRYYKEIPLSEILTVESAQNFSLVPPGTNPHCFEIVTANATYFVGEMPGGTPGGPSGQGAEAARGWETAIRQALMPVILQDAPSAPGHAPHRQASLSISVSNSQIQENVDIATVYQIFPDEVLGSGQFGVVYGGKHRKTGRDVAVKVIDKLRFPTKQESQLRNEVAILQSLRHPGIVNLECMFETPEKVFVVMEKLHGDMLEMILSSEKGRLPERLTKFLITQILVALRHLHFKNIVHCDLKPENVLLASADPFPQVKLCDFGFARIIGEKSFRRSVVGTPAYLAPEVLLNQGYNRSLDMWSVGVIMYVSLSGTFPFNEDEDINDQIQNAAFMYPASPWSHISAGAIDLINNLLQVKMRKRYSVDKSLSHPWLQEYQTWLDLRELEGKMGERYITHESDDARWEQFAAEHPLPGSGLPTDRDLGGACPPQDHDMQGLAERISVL
Sequence of PHKG2 (human) (P15735 whole entry, looked up): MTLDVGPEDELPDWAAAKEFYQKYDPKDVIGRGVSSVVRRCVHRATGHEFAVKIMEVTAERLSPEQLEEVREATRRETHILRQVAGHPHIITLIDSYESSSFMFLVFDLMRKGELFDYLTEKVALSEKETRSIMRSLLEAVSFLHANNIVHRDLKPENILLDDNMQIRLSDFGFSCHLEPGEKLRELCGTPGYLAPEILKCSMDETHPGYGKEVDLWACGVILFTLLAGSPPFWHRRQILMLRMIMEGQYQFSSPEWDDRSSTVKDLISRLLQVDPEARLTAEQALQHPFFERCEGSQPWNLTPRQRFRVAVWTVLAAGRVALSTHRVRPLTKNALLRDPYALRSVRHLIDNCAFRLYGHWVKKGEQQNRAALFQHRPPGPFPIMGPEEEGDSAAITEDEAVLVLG
Sequence of CAMK2B (human) (Q13554 whole entry, looked up): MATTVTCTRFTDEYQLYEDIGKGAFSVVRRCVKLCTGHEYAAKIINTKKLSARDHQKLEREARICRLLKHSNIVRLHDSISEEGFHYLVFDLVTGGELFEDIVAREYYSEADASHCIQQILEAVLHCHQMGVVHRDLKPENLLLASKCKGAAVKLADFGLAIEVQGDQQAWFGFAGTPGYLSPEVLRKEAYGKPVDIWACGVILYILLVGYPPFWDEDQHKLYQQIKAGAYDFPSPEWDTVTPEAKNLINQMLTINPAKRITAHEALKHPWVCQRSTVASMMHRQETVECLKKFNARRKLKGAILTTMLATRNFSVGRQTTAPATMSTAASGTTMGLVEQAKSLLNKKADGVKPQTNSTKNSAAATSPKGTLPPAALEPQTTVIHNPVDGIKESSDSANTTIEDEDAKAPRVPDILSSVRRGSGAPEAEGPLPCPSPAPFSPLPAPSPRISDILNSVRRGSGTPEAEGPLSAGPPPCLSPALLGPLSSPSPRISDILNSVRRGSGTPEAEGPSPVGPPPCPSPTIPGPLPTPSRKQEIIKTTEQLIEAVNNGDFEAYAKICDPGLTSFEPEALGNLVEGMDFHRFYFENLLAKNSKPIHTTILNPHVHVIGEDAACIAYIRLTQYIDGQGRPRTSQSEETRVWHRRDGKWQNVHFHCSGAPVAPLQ
Sequence of AXL (human) (P30530 whole entry, looked up): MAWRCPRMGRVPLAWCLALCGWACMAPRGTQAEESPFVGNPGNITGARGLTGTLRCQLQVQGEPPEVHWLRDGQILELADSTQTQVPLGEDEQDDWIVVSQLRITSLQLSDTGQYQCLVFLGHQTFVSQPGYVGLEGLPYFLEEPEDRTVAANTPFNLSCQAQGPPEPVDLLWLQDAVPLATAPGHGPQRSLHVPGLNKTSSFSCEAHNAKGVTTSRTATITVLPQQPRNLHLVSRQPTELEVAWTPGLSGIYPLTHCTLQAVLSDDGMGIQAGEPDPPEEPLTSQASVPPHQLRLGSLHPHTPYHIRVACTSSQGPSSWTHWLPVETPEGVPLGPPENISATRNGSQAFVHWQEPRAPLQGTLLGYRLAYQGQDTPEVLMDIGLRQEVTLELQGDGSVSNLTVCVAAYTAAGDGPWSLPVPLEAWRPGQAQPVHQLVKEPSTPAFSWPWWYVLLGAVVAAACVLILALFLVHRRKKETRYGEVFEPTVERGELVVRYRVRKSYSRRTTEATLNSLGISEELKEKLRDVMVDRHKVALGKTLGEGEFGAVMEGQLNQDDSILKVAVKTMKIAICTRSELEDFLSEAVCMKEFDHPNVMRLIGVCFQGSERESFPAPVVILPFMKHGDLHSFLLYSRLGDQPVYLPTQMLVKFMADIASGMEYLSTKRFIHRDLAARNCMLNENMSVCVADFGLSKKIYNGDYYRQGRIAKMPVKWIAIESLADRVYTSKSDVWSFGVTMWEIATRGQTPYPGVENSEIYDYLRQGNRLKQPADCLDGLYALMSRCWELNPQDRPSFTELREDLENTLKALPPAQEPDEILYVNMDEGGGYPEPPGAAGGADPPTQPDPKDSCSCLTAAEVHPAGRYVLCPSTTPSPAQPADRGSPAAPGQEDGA
Sequence of CDK2 CCNA2 (human) (P20248 whole entry, looked up, other chains not shown): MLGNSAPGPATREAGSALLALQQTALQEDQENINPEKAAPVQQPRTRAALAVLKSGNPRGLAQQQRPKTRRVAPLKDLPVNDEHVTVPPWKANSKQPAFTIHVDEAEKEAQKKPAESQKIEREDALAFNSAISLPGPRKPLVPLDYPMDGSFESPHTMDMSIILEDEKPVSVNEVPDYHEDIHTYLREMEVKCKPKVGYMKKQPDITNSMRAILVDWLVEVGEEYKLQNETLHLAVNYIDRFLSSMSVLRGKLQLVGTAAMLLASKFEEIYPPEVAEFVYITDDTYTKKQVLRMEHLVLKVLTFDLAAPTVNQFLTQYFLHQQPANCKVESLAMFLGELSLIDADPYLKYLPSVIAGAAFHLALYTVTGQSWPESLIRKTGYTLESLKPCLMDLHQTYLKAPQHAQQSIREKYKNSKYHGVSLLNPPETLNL
Sequence of WNK3 (human) (Q9BYP7 whole entry, looked up): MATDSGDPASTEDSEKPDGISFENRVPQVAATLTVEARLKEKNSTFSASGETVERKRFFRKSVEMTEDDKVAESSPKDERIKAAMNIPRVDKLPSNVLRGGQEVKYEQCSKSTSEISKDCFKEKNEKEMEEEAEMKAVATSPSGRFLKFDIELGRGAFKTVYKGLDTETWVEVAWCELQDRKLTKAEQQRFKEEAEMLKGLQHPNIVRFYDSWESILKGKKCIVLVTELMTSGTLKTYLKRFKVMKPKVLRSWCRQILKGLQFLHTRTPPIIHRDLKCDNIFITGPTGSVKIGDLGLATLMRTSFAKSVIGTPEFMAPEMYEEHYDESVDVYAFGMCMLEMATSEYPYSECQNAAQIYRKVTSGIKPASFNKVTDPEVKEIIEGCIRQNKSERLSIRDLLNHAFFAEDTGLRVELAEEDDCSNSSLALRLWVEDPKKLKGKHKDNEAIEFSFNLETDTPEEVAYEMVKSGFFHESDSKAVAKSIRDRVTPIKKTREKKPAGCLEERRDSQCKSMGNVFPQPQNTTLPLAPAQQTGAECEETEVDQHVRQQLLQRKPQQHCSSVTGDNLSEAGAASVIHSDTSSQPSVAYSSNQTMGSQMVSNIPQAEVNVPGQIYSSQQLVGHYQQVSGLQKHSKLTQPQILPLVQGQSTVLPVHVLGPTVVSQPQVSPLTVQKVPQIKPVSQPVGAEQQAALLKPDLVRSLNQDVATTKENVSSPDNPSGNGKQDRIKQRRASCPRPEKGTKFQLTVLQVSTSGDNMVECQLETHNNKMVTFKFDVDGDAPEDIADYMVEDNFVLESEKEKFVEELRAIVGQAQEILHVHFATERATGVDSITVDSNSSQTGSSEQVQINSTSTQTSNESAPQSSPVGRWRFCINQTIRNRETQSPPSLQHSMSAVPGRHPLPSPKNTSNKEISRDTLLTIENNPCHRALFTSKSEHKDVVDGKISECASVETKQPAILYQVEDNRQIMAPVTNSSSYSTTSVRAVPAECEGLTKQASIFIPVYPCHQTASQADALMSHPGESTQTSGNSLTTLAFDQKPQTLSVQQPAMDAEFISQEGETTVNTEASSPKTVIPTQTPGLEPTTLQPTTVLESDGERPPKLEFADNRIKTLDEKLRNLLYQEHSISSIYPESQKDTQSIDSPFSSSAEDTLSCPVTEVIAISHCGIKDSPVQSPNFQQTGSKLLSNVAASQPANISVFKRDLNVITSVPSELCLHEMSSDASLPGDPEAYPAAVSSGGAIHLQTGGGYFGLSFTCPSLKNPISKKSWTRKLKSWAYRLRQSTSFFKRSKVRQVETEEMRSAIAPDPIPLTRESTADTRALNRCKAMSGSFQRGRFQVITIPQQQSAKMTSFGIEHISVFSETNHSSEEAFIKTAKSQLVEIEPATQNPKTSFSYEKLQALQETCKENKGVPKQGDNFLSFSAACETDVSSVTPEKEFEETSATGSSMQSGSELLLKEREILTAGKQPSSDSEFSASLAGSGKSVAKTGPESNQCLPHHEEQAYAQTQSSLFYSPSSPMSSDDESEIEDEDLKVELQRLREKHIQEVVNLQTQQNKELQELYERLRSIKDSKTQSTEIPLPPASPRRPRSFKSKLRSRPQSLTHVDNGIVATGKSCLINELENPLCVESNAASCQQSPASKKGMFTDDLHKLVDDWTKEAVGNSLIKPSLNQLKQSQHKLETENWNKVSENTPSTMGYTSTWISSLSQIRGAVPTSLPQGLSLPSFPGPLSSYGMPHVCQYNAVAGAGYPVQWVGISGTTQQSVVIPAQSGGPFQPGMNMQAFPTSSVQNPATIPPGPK

| SMILES | residual activity (PRKACA (human)) [%] | residual activity (MST4 (human)) [%] | residual activity (CAMK2B (human)) [%] | residual activity (ERBB4 (human)) [%] | residual activity (CHUK (human)) [%] | residual activity (ACVRL1 (human)) [%] | residual activity (MAP4K5 (human)) [%] | residual activity (EPHA1 (human)) [%] | residual activity (CDK1 CCNB1 (human)) [%] | residual activity (ULK1 (human)) [%] | residual activity (PIM3 (human)) [%] | residual activity (PDGFRA (human)) [%] | residual activity (CHEK2 (human)) [%] | residual activity (LIMK1 (human)) [%] | residual activity (CHEK1 (human)) [%] | residual activity (ROCK2 (human)) [%] | residual activity (CDK9 CCNK (human)) [%] | residual activity (CDK4 CCND3 (human)) [%] | residual activity (HIPK2 (human)) [%] | residual activity (GSK3A (human)) [%] | also measured |
| --- | --- | --- | --- | --- | --- | --- | --- | --- | --- | --- | --- | --- | --- | --- | --- | --- | --- | --- | --- | --- | --- |
| C#Cc1cccc(Nc2ncnc3cc(OCCOC)c(OCCOC)cc23)c1 | 93.4 | 106 | 93.1 | 61.4 | 94.2 | 101 | 95.6 | 94.5 | 97.2 | 113 | 81.4 | 84.4 | 100 | 90.4 | 95.1 | 91 | 102 | 103 | 99.3 | 99.3 | residual activity (VRK1 (human)): 103%; residual activity (MARK4 (human)): 102%; residual activity (PRKG2 (human)): 107%; residual activity (PRKD2 (human)): 85.9%; residual activity (CDK2 CCNA2 (human)): 95.9%; residual activity (PHKG2 (human)): 97.9%; residual activity (CSNK1E (human)): 98.2%; residual activity (MAP3K7 TAB1 (human)): 88.8%; residual activity (NEK9 (human)): 99.5%; residual activity (TGFBR2 (human)): 91.8%; residual activity (WNK3 (human)): 101%; residual activity (RPS6KA5 KD2 (human)): 96.8% |
| Clc1ccc(Nc2nnc(Cc3ccncc3)c3ccccc23)cc1 | 98.1 | 118 | 109 | 104 | 104 | 98.5 | 101 | 96 | 104 | 107 | 98.9 | 33.3 | 98.5 | 98.9 | 96.5 | 95.4 | 104 | 102 | 101 | 103 | residual activity (FGFR3 (human)): 91.5%; residual activity (FLT3 (human)): 92%; residual activity (NEK4 (human)): 97.7%; residual activity (VRK1 (human)): 109%; residual activity (ABL2 (human)): 101%; residual activity (MARK4 (human)): 104%; residual activity (MATK (human)): 78.1%; residual activity (RPS6KA4 KD2 (human)): 98%; residual activity (AXL (human)): 98.3%; residual activity (PRKG2 (human)): 101%; residual activity (PRKD2 (human)): 86%; residual activity (CDK2 CCNA2 (human)): 87.7%; residual activity (PHKG2 (human)): 91.8%; residual activity (CSNK1E (human)): 99.1%; residual activity (MAP3K7 TAB1 (human)): 99.6%; residual activity (NEK9 (human)): 98.4%; residual activity (TGFBR2 (human)): 100%; residual activity (WNK3 (human)): 99.1%; residual activity (RPS6KA5 KD2 (human)): 85.5%; residual activity (TBK1 (human)): 104% |
| COc1cc2ncnc(Nc3ccc(F)c(Cl)c3)c2cc1OCCCN1CCOCC1 | 96.3 | 106 | 95.4 | 24.2 | 94.9 | 96.9 | 80 | 87.4 | 99.1 | 93 | 74.6 | 97 | 84 | 90 | 95.3 | 90.8 | 99.3 | 101 | 99.7 | 99.7 | residual activity (FGFR3 (human)): 79.3%; residual activity (FLT3 (human)): 56.5%; residual activity (NEK4 (human)): 103%; residual activity (VRK1 (human)): 99.3%; residual activity (ABL2 (human)): 72%; residual activity (MARK4 (human)): 94.2%; residual activity (MATK (human)): 86.4%; residual activity (RPS6KA4 KD2 (human)): 104%; residual activity (AXL (human)): 88.8%; residual activity (CDK2 CCNA2 (human)): 95.9%; residual activity (PHKG2 (human)): 93.9%; residual activity (CSNK1E (human)): 106%; residual activity (MAP3K7 TAB1 (human)): 91.3%; residual activity (NEK9 (human)): 99.3%; residual activity (TGFBR2 (human)): 93.8%; residual activity (WNK3 (human)): 102%; residual activity (RPS6KA5 KD2 (human)): 100%; residual activity (TBK1 (human)): 83.1% |
| O=C1Nc2cc(Br)ccc2/C1=C1/Nc2ccccc2/C1=N\O | 106 | 122 | 65.8 | 96.8 | 104 | 103 | 36.5 | 98.5 | 50.5 | 95.3 | 73.2 | 68.4 | 48.3 | 51.7 | 57.1 | 92.1 | 37.5 | 75.9 | 96.2 | 3.6 | residual activity (FGFR3 (human)): 54.6%; residual activity (FLT3 (human)): 4.02%; residual activity (KDR (human)): 64.2%; residual activity (NEK4 (human)): 96.7%; residual activity (VRK1 (human)): 98%; residual activity (MATK (human)): 99.6%; residual activity (RPS6KA4 KD2 (human)): 56.1%; residual activity (AXL (human)): 57.7%; residual activity (PRKG2 (human)): 69.1%; residual activity (PRKD2 (human)): 94.1%; residual activity (CDK2 CCNA2 (human)): 7.66%; residual activity (PHKG2 (human)): 92.5%; residual activity (CSNK1E (human)): 83.7%; residual activity (MAP3K7 TAB1 (human)): 79.3%; residual activity (NEK9 (human)): 96.3%; residual activity (TGFBR2 (human)): 106%; residual activity (WNK3 (human)): 93.8%; residual activity (RPS6KA5 KD2 (human)): 82.6%; residual activity (TBK1 (human)): 62.1% |
| CS(=O)c1ccc(-c2nc(-c3ccc(F)cc3)c(-c3ccncc3)[nH]2)cc1 (stereo not drawn) | 98.9 | 96.8 | 97.6 | 66.8 | 100 | 97.7 | 99.5 | 97 | 99.1 | 89.3 | 98.1 | 98.8 | 99.6 | 91.3 | 97.3 | 98.4 | 98.6 | 105 | 102 | 94.1 | residual activity (FGFR3 (human)): 97%; residual activity (FLT3 (human)): 91.5%; residual activity (KDR (human)): 99.2%; residual activity (NEK4 (human)): 98.2%; residual activity (ABL2 (human)): 91.5%; residual activity (MARK4 (human)): 98.5%; residual activity (MATK (human)): 95.6%; residual activity (RPS6KA4 KD2 (human)): 99.6%; residual activity (AXL (human)): 101%; residual activity (PRKG2 (human)): 92.7%; residual activity (CDK2 CCNA2 (human)): 101%; residual activity (PHKG2 (human)): 102%; residual activity (CSNK1E (human)): 31%; residual activity (MAP3K7 TAB1 (human)): 94%; residual activity (NEK9 (human)): 99.1%; residual activity (TGFBR2 (human)): 144%; residual activity (WNK3 (human)): 99%; residual activity (RPS6KA5 KD2 (human)): 103%; residual activity (TBK1 (human)): 99.7% |

Reference: the kinase profiling compilation of Christmann-Franck et al. (2016)
